# System: ZYG11B
# Experiment: Peptide pull-down with quantitative MS, HeLa lysate, ZYG11B
# Type: binding, human (HeLa)
# Details: Nt-Ac vs Nt-free peptides
# Experimental: Biotinylated 10-mer Nt-peptides (Nt-free, Nt-acetylated, and, where indicated, Nt-myristoylated; sequences in Supplementary Table 1) were synthesized with a C-terminal Lys3 spacer and biotin, immobilized on magnetic streptavidin beads, and incubated with HeLa or mouse liver lysates. After standardized washes, bound proteins were on-bead reduced/alkylated, digested with LysC/trypsin, desalted, and analysed by LC-MS in DIA mode (Orbitrap Exploris 480) as described previously. Variants included endogenous Nt-sequences, swap and mutant (Ala-Ala-Ala or Nt-amino acids) peptides, and pairwise comparisons of conditions of interest. Full buffer compositions, bead loading, wash schemes, and MS parameters are provided in the Supplementary Methods.
# 203 Supplementary Methods
# 205 Peptide sequences are listed in Supplementary Table 1. Peptide pull-downs were
# Briefly, magnetic streptavidin beads (DynabeadsTM
# Beads were then washed three times with PBS. After
# 210 washing, 1 mg of HeLa lysates or 2 mg of liver lysates was taken, and lysis buffer (75
# Lysates were incubated with streptavidin
# HeLa pull-downs were washed twice with lysis buffer and twice
# Liver pulldowns were washed twice with cold low salt buffer (50 mM
# 220 individually ventilated cages under a 12-h light/dark cycle and were provided with sterile
# All procedures were performed
# No animal procedures were performed specifically for this […]
sequence,measurement,value
"GAPATRRCVEKK [Nt-free TMEM97, Nt-peptide of TMEM97, Nt-free]",ZYG11B binding (in words),ZYG11B binding only to the Nt-free peptide of TMEM97
